Test results: article PMC7719179, “Small molecule inhibition of Dynamin-dependent endocytosis targets multiple niche signals and impairs leukemia stem cells” (Nature Communications, 2020)
Where “and” joins values, the source holds several entries; their conditions need not be identical. Identical values can stand only once.

What was measured:
[1] = tested on: IL-7 signalling (pStat5) in Ba/F3-IL7R cells; assay: IL-7-induced phospho-Stat5 in Ba/F3-IL7R cells (phosphoflow); assay type: cell-based, murine; details: Ba/F3-IL7R cells; result in words
Experimental: (§1) Ba/F3 cells (kindly provided by a person from The Walter and Eliza Hall Institute of Medical Research) were infected with pMIG-R1/Il7r retroviral supernatants produced in 293T cells, and transduced cells were sorted with a BD Influx (BD Australia) and selected by culture in medium supplemented with 5 ng/mL rmIL-7 (#217-17, Pepro Tech, Rocky Hill NJ, USA) for 7 days. Ba/F3 cells stably expressing Il7r (Ba/F3-IL7R) were infected with TxTCPVIR-Stat5-CA retroviral supernatants produced in 293T. Cell sorting was performed with a BD Influx and transduced cells were treated with doxycycline for 48 h to induce the expression of the Stat5-CA-T2A-mCherry fusion protein.
Phosphoflow analysis was performed as previously described. Briefly, 2 × 10^6 cells stained for surface markers were subsequently resuspended into PBS 1× + 4% v/v paraformaldehyde and incubated for 10 min at 4 °C for fixation. Fixed cells were washed twice using PBS 1×, then resuspended in pre-chilled at −20 °C Perm Buffer III (BD Pharmingen) and incubated 30 min at 4 °C for permeabilization. Cells were washed twice using PBS 1× and incubated overnight at 4 °C in PBS 1× + 2% v/v fetal calf serum (FCS) with Cell Signalling purified antibodies (Genesearch Pty Ltd, Arundel QLD, Australia) against pSTAT5 (Tyr694; #9359), phospho-p38 MAPK (Thr180/Tyr182; #4511), phospho-p44/42 (Erk1/2; #9102), phospho-S6 (Ser235/236; #4856) and phospho-Akt (Ser473; #9271) or isotype control. For intracellular HES1 detection, cells stained for surface markers were subsequently fixed and permeabilized using the BD Cytofix/Cytoperm^TM Kit and incubated overnight at 4 °C in PBS 1× + 2% v/v FCS with a purified antibody against HES1 (D6PU; #11988, Cell Signalling) or isotype control. After staining with primary antibodies for phosphoflow or intracellular detection, cells were incubated in permeabilization buffer with donkey Alexa Fluor 488-conjugated anti-rabbit secondary antibody (A-21206, lot #1910751, Molecular Probes, Invitrogen) or goat Alexa Fluor 546-conjugated anti-rabbit secondary antibody (A-11035, lot #1904467, Molecular Probes, Invitrogen) for 1 h on ice, and washed twice in PBS 1×. Fluorescence-activated cell sorting (FACS) analysis was performed using LSRII and LSR Fortessa cytometers, following the gating strategies described in Supplementary Fig. 11. Cell sorting was performed with a FACSAria or BD Influx.
For in vitro IL-7 stimulation assays, cells were starved in serum-free DMEM at 37 °C, then incubated with either vehicle or Dynole 34-2 or Ruxolitinib (INCB018424; #S1378, Selleckchem), or DAPT (GSI-IX; #S2215, Selleckchem) resuspended in DMSO for 1 h. Thymocytes were subsequently stimulated with 25 ng/mL IL-7 at 37 °C for 20 min and washed twice using cold PBS 1×. Cells were incubated with 25 ng/mL Rat IgG (Sigma-Aldrich Pty Ltd, Castle Hill NSW, Australia) and with a PE-conjugated antibody for detection of IL-7R (CD127) for 1 h on ice, as described in the FACS analysis section. PE-conjugated isotype was used as negative control. Cells were washed twice, fixed and phosphoflow analysis performed as described in the FACS analysis section. The analysis was performed in triplicate and the mean fluorescence intensity (MFI) observed without stimulation was reported as 100%.

[2] = tested on: DN3a thymocytes; assay: Relative viability and LC50 on DN3a thymocytes of WT, Lmo2^Tg, Lmo2^Tg;STAT5-CA^Tg and Lmo2^Tg;N1-ICD^Tg mice, 48 h; details: Lmo2Tg;STAT5-CATg
Experimental: Pre-leukemic and leukemic thymocytes were purified by flow cytometry and co-cultured on GFP-positive OP9 and OP9-DL1 stromal cell lines, as described previously. Thymocytes were co-cultured in reconstituted alpha-MEM medium (#12318, Gibco, Grand Island NY, USA) supplemented with 20% FCS (#12318), HEPES 10 mM (#15630-080), sodium pyruvate 1 mM (#11360-070), β-mercaptoethanol 55 μM (#21985-023), Glutamax 2 mM (#15750-060), 1% Penicillin/Streptomycin (#15140-122), 5 ng/mL rmFLT-3 ligand (#250-31 L, Pepro Tech), 5 ng/mL rmIL-7 (#217-17, Pepro Tech) and 25 ng/mL rmSCF (#250-03, Pepro Tech). After 48 h of co-culture, thymocytes were counted and analysed by FACS. […]
viability of wild-type (WT), Lmo2 Tg, Lmo2Tg;STAT5-CA Tg and Lmo2Tg;N1-ICD Tg DN3a thymocytes […]
normalized to cells treated with vehicle (%DMSO). Mean ± SEM of n=4 biological replicates. b, […]
thymocytes from 6-week old wild-type (WT), Lmo2 Tg, Lmo2Tg;STAT5-CATg and Lmo2Tg ;N1-ICD Tg mice. Mean ± SD of n=4 biological replicates are shown. 2-way ANOVA with Tukey’s correction test; […]
(1 picture or pasted object on this page, not shown here)
*P<0.05, *** P<0.001 compared to WT; #P<0.05, ##P<0.01, ###P<0.001 compared to L mo2Tg. c, Levels of pStat5 (left) after stimulation with IL-7 , as well as Hes1 expression (right) after co-culture on OP9- […]
(0.2 µM), Ruxolitinib (0.2 µM) and DAPT (0.1 µM). Unstimulated cells were used as negative controls (dashed line). Student’s t -test, ** P<0.01, *** P<0.001 compared to unstimulated cells. MFI ± SEM, 1-way ANOVA with Tukey’s correction test; **P<0.01, *** P<0.001 compared to vehicle. d, Clonogenic assay of normal murine hematopoietic stem and progenitor cells (HSPCs) cultured in the presence […]
± SD, Student’s t -test ( n=4) **P<0.01 compared to vehicle. e, Relative viability of wild-type (WT), […]
2 (0.2 µM), Ruxolitinib (0.2 µM) and DAPT (0.1 µM) for 48 hours. Viability was normalized to cells treated with vehicle (%DMSO, which was reported as 100). Mean ± SEM, 2-way ANOVA with Tukey’s correction test, **P<0.01, *** P<0.001 compared to vehicle.

[3] = tested on: Ba/F3-IL7R^Stat5-CA cells; assay: Cytotoxic activity in IL-7-dependent and IL-7-independent Ba/F3-IL7R^Stat5-CA cells; assay type: cell-based, murine; details: for Survival (%) over survival at day 0, reported as 100%: Ba/F3-IL7R^Stat5-CA cells, dose = IC50 or LC50 of each drug
Text: The doxycycline-inducible dual-colour TRMPVIR (TRE-dsRed-miR30/shRNA-PGK-Venus-IRES-rtTA3) retroviral vector[84] was kindly given by R. A. Dickins and was modified by replacing the dsRed-miR30/shRNA sequence by a T2A self-cleaving peptide[85] fusioned with the mCherry fluorescent protein (from TRIPZ, Addgene) inserted into the BamHI and EcoRI sites of the plasmid downstream of the TRE promoter to generate the TxTCPVIR (TRE-gene-T2A-mCherry-PGK-Venus-IRES-rtTA3) retroviral vector. Using standard cloning techniques, we inserted the full-length sequence of Stat5-CA from the pMig-R1 construct into the TxTCPVIR vector to generate the TxTCPVIR-Stat5-CA construct. All subcloned constructs were verified by DNA sequencing (Micromon, Monash University, Australia). Detailed cloning strategies, primers sequences and vectors are available on request.
as §1
Flow cytometry analyses were performed as previously described[10],[86] on single-cell suspensions stained using BD Pharmingen antibodies (BD Australia, North Ryde NSW, Australia) against mouse CD4 (RM4-5), CD8 (53-6.7), CD25 (PC61.5), CD44 (IM7), CD45.1 (A20), CD45.2 (104), Thy1.2 (53-2.1; #561616), TCRβ (H57-597), CD117 (ACK45), CD135 (A2F10.1), CD150 (TC15-12F12.2; #562373), B220 (RA3-6B2; #563708), CD3 (145-2C11; #563004), CD19 (ID3; #557655), Gr-1 (RB6-8C5; #563299 and #565033), CD11b (M1/70; #563015 and #560455), Ter119 (Ter119; #565523 and #557909), Sca-1 (D7; #558160) and an eBioscience antibody (eBioscience, Invitrogen) against mouse NOTCH1 (22E5). DN3 populations and IL-7R were stained using BioLegend antibodies (Australian Biosearch, Balcatta WA, Australia) against mouse CD28 (E18) and CD127 (A7R34), respectively. Apoptosis was measured using an antibody against AnnexinV (#556420, BD Australia) and the […] Sytox Blue (BD Australia) following the manufacturer’s protocol.

O=C(N/N=C/c1ccc(O)c(O)c1)c1cc2ccccc2cc1O [Dynasore, reference compound]
inhibition of IL-7 signalling as measured by loss of phospho-Stat5 [1]: dose-dependent inhibition

O=C(NN=Cc1cc(O)c(O)cc1O)c1cc2ccccc2cc1O [Dyngo 4a, 3-Hydroxy-N’-[(2,4,5-trihydroxyphenyl)-methylidene]-naphthalene-2-carbohydrazide, reference compound]
inhibition of IL-7 signalling as measured by loss of phospho-Stat5 [1]: dose-dependent inhibition

CCCCCCCCNC(=O)/C(C#N)=C/c1cn(CCCN(C)C)c2ccccc12 [Dynole 34]
Survival (% DMSO) [2]: 50.05 % DMSO and 55.36 % DMSO and 37.5 % DMSO and 40.03 % DMSO

CC[C@]1(O)C[C@H]2CN(CCc3c([nH]c4ccccc34)[C@@](C(=O)OC)(c3cc4c(cc3OC)N(C=O)[C@H]3[C@@](O)(C(=O)OC)[C@H](OC(C)=O)[C@]5(CC)C=CCN6CC[C@]43[C@@H]65)C2)C1 [Vincristine]
Survival (%) over survival at day 0, reported as 100% ([3]; +IL-7 -DOX, 0 h): 100.02% and 100.26% and 100.28% and 99.72% and 99.53% and 100.47%
Survival (%) over survival at day 0, reported as 100% ([3]; +IL-7 -DOX, 24 h): 97.78% and 97.03% and 92.76% and 93.67% and 88.90% and 79.18%
Survival (%) over survival at day 0, reported as 100% ([3]; +IL-7 -DOX, 48 h): 60.76% and 61.24% and 44.94% and 67.20% and 75.05% and 65.49%
Survival (%) over survival at day 0, reported as 100% ([3]; +IL-7 -DOX, 72 h): 42.05% and 38.67% and 50.69% and 46.55% and 54.10% and 54.58%
Survival (%) over survival at day 0, reported as 100% ([3]; +IL-7 -DOX, 96 h): 9.57% and 5.19% and 6.30%
Survival (%) over survival at day 0, reported as 100% ([3]; -IL-7 +DOX, 0 h): 100.62% and 100.47% and 99.53% and 102.59% and 99.98% and 100.02%
Survival (%) over survival at day 0, reported as 100% ([3]; -IL-7 +DOX, 24 h): 84.77% and 83.72% and 89.11% and 91.00% and 83.57% and 82.00%
Survival (%) over survival at day 0, reported as 100% ([3]; -IL-7 +DOX, 48 h): 82.10% and 78.50% and 82.90% and 69.10% and 67.20% and 82.60%
Survival (%) over survival at day 0, reported as 100% ([3]; -IL-7 +DOX, 72 h): 60.60% and 57.90% and 64.60% and 57.00% and 62.20% and 65.20%
Survival (%) over survival at day 0, reported as 100% ([3]; -IL-7 +DOX, 120 h): 34.10% and 40.50% and 30.80% and 32.50% and 34.90% and 26.60%
sensitivity of Ba/F3-IL7R^Stat5-CA cells with constitutive pStat5 (doxycycline) ([3]; result in words): equally effective
